Assay results taken from publication PMC11945486, “TAS1R2/TAS1R3 Single-Nucleotide Polymorphisms Affect Sweet Taste Receptor Activation by Sweeteners: The SWEET Project” (Nutrients, 2025).

Molecular target: T1, human TAS1R2-R838K (subunit alone) (Homo sapiens, UniProt Q8TE23, R838K)
T1 construct: expressed in transfected cells; host or cells: HEK293T stably expressing Gα16gust44
T1 sequence (Q8TE23 20-839 R838K): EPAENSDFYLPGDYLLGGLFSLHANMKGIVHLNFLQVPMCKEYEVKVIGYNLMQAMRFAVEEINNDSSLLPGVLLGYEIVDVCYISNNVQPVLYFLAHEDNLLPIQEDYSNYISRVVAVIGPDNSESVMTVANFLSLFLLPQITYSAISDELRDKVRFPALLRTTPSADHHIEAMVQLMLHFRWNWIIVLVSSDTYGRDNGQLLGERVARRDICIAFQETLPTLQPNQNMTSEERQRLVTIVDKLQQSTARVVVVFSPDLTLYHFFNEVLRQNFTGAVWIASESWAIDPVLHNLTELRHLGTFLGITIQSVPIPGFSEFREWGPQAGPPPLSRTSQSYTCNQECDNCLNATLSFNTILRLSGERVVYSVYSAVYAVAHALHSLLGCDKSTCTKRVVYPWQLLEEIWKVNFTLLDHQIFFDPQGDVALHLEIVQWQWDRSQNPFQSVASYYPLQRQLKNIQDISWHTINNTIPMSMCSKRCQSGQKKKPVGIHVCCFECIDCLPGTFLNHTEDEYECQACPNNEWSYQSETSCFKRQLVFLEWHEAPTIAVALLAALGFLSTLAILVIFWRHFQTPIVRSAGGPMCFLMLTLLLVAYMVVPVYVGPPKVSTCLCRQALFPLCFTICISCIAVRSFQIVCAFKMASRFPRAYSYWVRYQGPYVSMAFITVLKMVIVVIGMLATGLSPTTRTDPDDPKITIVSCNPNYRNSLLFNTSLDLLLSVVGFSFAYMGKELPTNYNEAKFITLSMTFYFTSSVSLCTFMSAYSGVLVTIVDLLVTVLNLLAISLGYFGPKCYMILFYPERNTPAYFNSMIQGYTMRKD
Assay: Calcium mobilisation assay, TAS1R2-R838K subunit alone
Assay type: cell-based
Excerpt: The coding sequences for TAS1R2 and TAS1R3 were commercially synthesised, and the human codon was optimised for expression in human cells. The coding sequences of human TAS1R2 and TAS1R3 were subcloned and inserted into the mammalian expression vectors pcDNA6/myc-HisA and pcDNA4/myc-HisA (Invitrogen; Thermo Fisher Scientific; Illkirch, France) between the EcoRI and NotI restriction sites, generating the plasmids pcDNA6-TAS1R2 and pcDNA4-TAS1R3, respectively. To increase protein expression in mammalian cells, an upstream start codon was used, which was a sequence called MAX, corresponding to the QBI SP163 element also described in pcDNA4-HisMax (Invitrogen; Thermo Fisher Scientific; Illkirch, France). To measure the expression level of the receptor by immunohistochemistry, we used the FLAG sequence ([…]) in the C-terminal position, which encodes the FLAG tag epitope. […]
The HEK293T cells were kindly provided by Jay P. Slack (Givaudan Flavors Corporation; Cincinnati, OH, USA). […] The fluorescence intensity was measured for 90 s (excitation 488 nm, emission 510 nm) in an automated fluorometric FlexStation®3 Multi-Mode microplate reader (Molecular Devices; San Jose, CA, USA). […] The Ca^2+ changes were expressed as fractional changes in fluorescent light intensity: ΔF/F = (F − F0)/F0, where F was the fluorescent light intensity at each point, and F0 was the value of emitted fluorescent light prior to stimulus application. To calculate dose–response relationships, the changes in fluorescence upon stimulus application were averaged, mock-subtracted and baseline-corrected. […] The half-maximal effective concentrations (EC50 values) and maximal signal amplitudes were calculated using SigmaPlot software (version 15.0) (Systat Software; San Jose, CA, USA).
For in vitro calcium mobilisation assay performed on hTAS1R2-SNPs, hTAS1R3-SNPs and mTAS1R3-I60T, 6 to 7 concentrations were tested for each sweet compound, plus buffer alone. All concentration–receptor combinations were measured in duplicate, and each experiment was repeated at least 4 times (8 wells/concentration). […]

For `C=C(C)[C@@H]1CC=C(/C=N/O)CC1` [Perillartine, perillartine], the EC50 was 92.4 ± 19.7 µM, the “R1 = Variant EC50/WT EC50” value was 1.0 and the “Max ΔF/F0” value (maximal signal amplitude) was 0.35 ± 0.03.
